Assay results from PMC12649575, “Assessment of Polymyxin B with Sodium Deoxycholate Sulfate Micelles in a Rat Model to Combat Polymyxin Nephrotoxicity” (Antibiotics, 2025).

Columns and labels:
[1] = PMB serum concentration after a single subcutaneous dose (LC-MS); type: in vivo; settings: rat, single 6 mg/kg s.c., 4 h post-dose, PMB after protein precipitation, mean ± SD, n = 4
Excerpt: (§3) The serum concentrations reported represent the free (unbound) PMB fraction determined after protein precipitation and filtration, which is the pharmacologically active component.
(§4) For the biodistribution study, a sample size of four rats per group was chosen as a preliminary exploratory analysis to determine major organ distribution trends. This sample size was consistent with previous biodistribution studies involving polymyxins and sufficient to identify statistically meaningful differences in renal accumulation [7]. […] PMB concentrations were measured in LC-MS for free (unbound) fraction of serum and tissue homogenates after protein precipitation.
(§5) The PMB was quantified using an LC-MS/ion trap time-of-flight system (Shimadzu, Tokyo, Japan) equipped with a C18 column (2.1 mm id × 150 mm, 2.7 µm particle size; Thermo Fisher Scientific, Scoresby, Australia). […] A quantity of 400 µL of supernatant was added to 600 µL of the mobile phase. A known amount of standard PMB in blank serum was prepared using the same method to produce a calibration curve of PMB and quantification was performed using colistin sulfate (1 µg/mL) as the internal standard. The monitored mass transitions were m/z 602.4 → 101.1 for PMB and m/z 585.5 → 101.1 for colistin. […]

[2] = PMB biodistribution in organs 24 h after subcutaneous dose (LC-MS); type: in vivo; settings: rat, 6 mg/kg s.c., kidney homogenate 24 h post-dose, mean ± SD, n = 4
Excerpt: as §3, §4, §5

male Sprague-Dawley rats [3] = assay: Body weight and body weight gain in the 7-day nephrotoxicity study; type: in vivo; settings: rat
Experimental: After seven days of treatment with 6 mg/kg of the PMB and PMB formulation, the weight progression of the rats in each group was measured and recorded. All 36 rats successfully acclimated and reached the target body weight of 110 g within the 7-day period. No animals were excluded from the study. The results in Figure 1A show the weight changes measured on day 0, day 4, and day 7 of administration.
The animal study was approved by the Animal Ethics Committee of Prince of Songkla University (Project License No. MHESI 68014/675, Ref. AR042/2024). The animals were housed in a controlled environment with a temperature of 22 ± 2 °C, relative humidity of 50 ± 10%, and a 12/12-h light/dark cycle. They were provided with a standard laboratory rodent diet and water ad libitum. The study was conducted on male outbred Sprague-Dawley rats (5–7 weeks old, 130–170 g) that were obtained from the National Laboratory Animal Center, Mahidol University, Nakorn Pathom, Thailand. The rats were fed the standard feed protocol by the Southern Laboratory Animal Facility, Faculty of Sciences, Prince of Songkla University. Rats were allowed to acclimate for 7 days prior to the experiment.
The nephrotoxicity experiment of the PMB formulation was performed on 36 male rats that were randomly divided into four groups (n = 9). Randomization was performed using computer-generated random sequences in Microsoft Excel with a fixed seed value to ensure reproducibility. Block randomization was used to balance the number of animals per group. […] The PMB dose of 6 mg/kg/day (expressed as PMB equivalent) was selected based on previous pharmacokinetic and toxicity studies in rats, where this dose consistently produced measurable nephrotoxicity without lethality. […] The average weight gain of each group was recorded for the experiment. We randomized the treatment order and controlled the timing of measurements, and all researchers involved in the study were blinded to the intervention. The animals were euthanized 24 h after the last treatment with an intraperitoneal lethal dose of sodium pentobarbital (200 mg/kg). […]

[4] = system: rat kidney, liver, lung and spleen tissue; assay: Histopathological examination (H&E) of kidney, liver, lung and spleen; type: in vivo; settings: 7 days of 6 mg/kg/day s.c., result in words
Experimental: An H&E assay was performed on the collected tissues of all animals to evaluate PMB-induced nephrotoxicity and organ damage. The kidney histopathological results from the H&E assay of the renal cortex and medulla in the treated animals are shown in Figure 3.
Liver histopathological alterations in the central vein area and portal triad area of the treated rats are shown in Figure 4A and Figure 4B, respectively.
Histopathological alterations in the spleen tissue of the treated animals were also examined (Figure 4D).
(§1) The nephrotoxicity experiment of the PMB formulation was performed on 36 male rats that were randomly divided into four groups (n = 9). Randomization was performed using computer-generated random sequences in Microsoft Excel with a fixed seed value to ensure reproducibility. Block randomization was used to balance the number of animals per group. […] The PMB dose of 6 mg/kg/day (expressed as PMB equivalent) was selected based on previous pharmacokinetic and toxicity studies in rats, where this dose consistently produced measurable nephrotoxicity without lethality. […] The average weight gain of each group was recorded for the experiment. We randomized the treatment order and controlled the timing of measurements, and all researchers involved in the study were blinded to the intervention. The animals were euthanized 24 h after the last treatment with an intraperitoneal lethal dose of sodium pentobarbital (200 mg/kg). Blood samples were collected by cardiac puncture, and the serum was separated by centrifugation (3000× g for 15 min) and stored at −80 °C until assayed. Samples of the kidney, liver, spleen, lung, and heart tissues were carefully collected, weighed, and sectioned for histopathological analysis. Histological observation was performed to assess potential tissue damage and evaluate the extent of toxicity following the treatment.
Excess fat from the kidney, liver, spleen, lung, and heart tissues was removed through dissection and trimming. All samples were preserved in 10% buffered formalin using a fixative volume at least 10 times the tissue volume for three days. Subsequently, the tissues were dehydrated through a graded series of ethanol (70%, 80%, 95%, and 100%) using a tissue processor (LEICA TP 1020, Leica Microsystems GmbH, Wetzlar, Germany), with each concentration step lasting for 60 min. Following this, the tissues were embedded in Paraplast blocks using a tissue embedder (LEICA EG 1160, Leica Microsystems GmbH, Wetzlar, Germany). Thin sections that measured 5 μm in thickness were obtained using an automatic microtome. The slides were stained with Harris’ hematoxylin and eosin (H&E) and examined under an Olympus DP73 microscope (Olympus, Tokyo, Japan) equipped with cellSens software version 6.1.4.2. Histopathological analysis was performed by an investigator who was blinded to the treatment groups.

rat kidney function = assay: Kidney function: serum BUN and creatinine after 7 days of treatment; type: in vivo; settings: after 7 days of 6 mg/kg/day s.c., autoanalyzer, mean ± SD; for Serum creatinine (Cr): n = 5, normal saline 2.08 ± 1.08; for Serum blood urea nitrogen (BUN): n = 5, normal saline 13.8 ± 1.3
Experimental: After seven days of treatment, the serum levels of blood urea nitrogen (BUN) and Cr were assessed in the rats to investigate their kidney function. […] The PMB group had slightly elevated Cr levels (2.28 ± 0.31 mg/dL) (Figure 2B).
as §1
(§2) The serum levels of SOD and CAT were measured after the 7-day treatment period to investigate the oxidative properties of the treatments. The measurements were carried out using commercial kits according to the manufacturer’s instructions.

[5] = cited from earlier work
Excerpt: Nephrotoxicity remains a significant challenge for PMB. The prevalence of nephrotoxicity ranges from 10% to 60% despite the effectiveness of PMB in treating multidrug-resistant Gram-negative bacterial infections. The amphipathic properties of polymyxins are also responsible for their nephrotoxicity where the cationic diaminobutyric acid (Dab) residues of PMB interact with anionic phospholipids (e.g., phosphatidylinositol, cardiolipin) on the membranes of renal tubular cells. This electrostatic interaction, combined with the insertion of the lipophilic tail into the lipid bilayer, dis ... || PMB undergoes extensive reabsorption in the renal tubule, and a very high concentration of PMB is found in human renal tubular cells compared to the extracellular concentration. The increased accumulation of PMB leads to cell swelling and lysis by disrupting the permeability of the renal tubular epithelial cell membrane. In our results, the administration of the PMB formulation increased the serum concentration profile of PMB.

male Sprague-Dawley rats [6] = assay: Serum oxidative stress biomarkers SOD and CAT after 7 days of treatment; type: in vivo; settings: rat serum, after 7 days of 6 mg/kg/day s.c., commercial kit, mean ± SD, n = 5; for Serum catalase (CAT) level: control 22.4 ± 3.79; for Serum superoxide dismutase (SOD) level: normal saline 37.36 ± 3.4
Experimental: The serum levels of superoxide dismutase (SOD) and Catalase (CAT) in rats were analyzed to evaluate and compare the oxidative stress induced by the treatments. […] No significant reductions were detected in the serum SOD levels of the SDCS (38 ± 3.17 U/mL) and formulation (34.73 ± 5.17 U/mL) groups. […] The serum CAT levels in the treated rats followed a trend similar to that observed for the SOD levels (Figure 2D).
as §1, §2

Row | Substance | PMB serum concentration at 4 h [1] [µg/mL] | PMB concentration in the kidneys after 24 h [2] [µg/g] | Body weight gain compared with control (male Sprague-Dawley rats [3]; 6 mg/kg/day s.c. for 7 days, n = 9, result in words) | Body weight on day 4 (male Sprague-Dawley rats [3]; 6 mg/kg/day s.c., day 4 of 7, mean ± SD, n = 9, normal saline group 180.0 ± 11.83 g) [g] | Body weight on day 7 (male Sprague-Dawley rats [3]; 6 mg/kg/day s.c., day 7, mean ± SD, n = 9, normal saline group 207.5 ± 11.62 g) [g] | Kidney histopathology (renal cortex and medulla) [4] | Liver histopathology (central vein and portal triad area) [4] | Lung histopathology [4] | Spleen histopathology [4] | Serum creatinine (Cr) (rat kidney function) [mg/dL] | Serum blood urea nitrogen (BUN) (rat kidney function) [mg/dL] | Urinary recovery ([5]; animal models) [%] | PMB kidney/serum concentration ratio ([5]; another study) [fold] | Serum catalase (CAT) level (male Sprague-Dawley rats [6]) [nmol/min/mL] | Serum superoxide dismutase (SOD) level (male Sprague-Dawley rats [6]) [U/mL]
1 | Polymyxin B [PMB] | 2.94 ± 0.23 | 3.73 ± 0.89 | significant reduction in body weight gain | 163.89 ± 15.37 | 191.67 ± 15.83 | Deformation of the glomeruli and congestion of the renal blood vessels | significant monocyte infiltration accompanied by loss of hepatocyte architecture and the presence of necrotic foci around the blood vessels | endothelial damage that was evidenced by an increased number of small pulmonary venules containing fibrin thrombi | numerous multinucleated giant cells | 2.28 ± 0.31 | 16.56 ± 1.59 | < 5 | 18 | 9.5 ± 7.91 | 22.87 ± 8.1
2 | Sodium Deoxycholate sulfate [SDCS] |  |  |  |  |  | normal | normal hepatic tissues | normal lung tissue | normal white and red pulp | 2.06 ± 0.32 | 14.4 ± 2.07 |  |  | 22.25 ± 6.38 | 38 ± 3.17
